Assay results: ChEMBL document CHEMBL3232720, “Boseongazepines A-C, pyrrolobenzodiazepine derivatives from a Streptomyces sp. 11A057” (Bioorg Med Chem Lett, 2014)
Active and inactive are the calls of the source. No cut-off for these calls is given here.

Experiments:
Jurkat = assay: Growth inhibition of human Jurkat cells after 96 hrs by EZ-CyTox cell viability assay; type: functional, cell-based
K562 = assay: Growth inhibition of human K562 cells after 96 hrs by EZ-CyTox cell viability assay; type: functional, cell-based; conditions: K562, 96 h
HL-60 = assay: Growth inhibition of human HL60 cells after 96 hrs by EZ-CyTox cell viability assay; type: functional, cell-based; conditions: HL-60, 96 h
HepG2 = assay: Growth inhibition of human HepG2 cells after 96 hrs by EZ-CyTox cell viability assay; type: functional, cell-based; conditions: HepG2, 96 h
Escherichia coli = assay: Antimicrobial activity against Escherichia coli assessed as growth inhibition at 50 ug/disk after 48 hrs by paper disk method; type: functional, organism-based
Bacillus subtilis = assay: Antimicrobial activity against Bacillus subtilis assessed as growth inhibition at 50 ug/disk after 48 hrs by paper disk method; type: functional, organism-based
Staphylococcus aureus = assay: Antimicrobial activity against Staphylococcus aureus assessed as growth inhibition at 50 ug/disk after 48 hrs by paper disk method; type: functional, organism-based
Salinivibrio costicola = assay: Antimicrobial activity against Vibrio costicola assessed as growth inhibition at 50 ug/disk after 48 hrs by paper disk method; type: functional, organism-based
Candida albicans = assay: Antimicrobial activity against Candida albicans assessed as growth inhibition at 50 ug/disk after 48 hrs by paper disk method; type: functional, organism-based
Aspergillus fumigatus = assay: Antimicrobial activity against Aspergillus fumigatus assessed as growth inhibition at 50 ug/disk after 48 hrs by paper disk method; type: functional, organism-based

Row | SMILES | IC50 (Jurkat) | IC50 (K562) | IC50 (HL-60) | IC50 (HepG2) | growth inhibition (GI) (Escherichia coli) | growth inhibition (GI) (Bacillus subtilis) | growth inhibition (GI) (Staphylococcus aureus) | growth inhibition (GI) (Salinivibrio costicola) | growth inhibition (GI) (Candida albicans) | growth inhibition (GI) (Aspergillus fumigatus)
1 | C/C=C1\C[C@H]2CNc3ccccc3C(=O)N2C1 | 23.9 µM | 58.8 µM | 64.5 µM | 68.9 µM | inactive | inactive | inactive | inactive | inactive | inactive
2 | COc1cccc2c1NC[C@@H]1CC(C(C)=O)=CN1C2=O | 72 µM | > 100 µM | > 100 µM | 56.1 µM | inactive | inactive | inactive | inactive | inactive | inactive
3 | C/C=C1\C[C@H]2C(=O)Nc3c(OC)cccc3C(=O)N2C1 | > 100 µM | > 100 µM | > 100 µM | > 100 µM | inactive | inactive | inactive | inactive | inactive | inactive
4 | C/C=C1\C[C@H]2CNc3c(OC)cccc3C(=O)N2C1 [USABAMYCIN B] | 6.26 µM | 10.1 µM | 13.5 µM | 10.6 µM | inactive | inactive | inactive | inactive | inactive | inactive
